Experimental data from patent US12251400B2, “Liquid concentrates of calcium and magnesium” (BIOLINK LIFE SCIENCES, INC., priority 2019, dated 2025).

Experiment: In vitro assessment of phosphate binding
Details: 24 hours post-mixing
Procedure: Test Preparations: Solutions of the test article (calcium propionate and magnesium propionate) and control article (calcium acetate) are prepared in deionized, purified water having 18 MO or greater resistance. The pH of each solution is adjusted to the desired value by the addition of concentrated hydrochloric acid or sodium hydroxide, as appropriate.
Tests and Assays: An HPLC method with conductivity detection was developed and validated for use in the determination of propionate, acetate and phosphate. HPLC analysis is performed using a Dionex Aquion ion chromatography system Detection of the anionic species is enabled using a Dionex ED50 Electrochemical Detector, operating in Conductivity Mode. Limits of Detection and Quantitation are enhanced through the use of a Dionex Anion Self-Regenerating Suppressor. After assay-specific development and verification of assay performance is completed, the analysis of phosphate and propionate or acetate is performed by sampling the test solution and diluting it, if necessary, to a concentration within the linear range of the Assay. The sample is then injected onto the HPLC column and eluted with a sodium hydroxide gradient. Data is acquired using Dionex Chromeleon® software. […]

CC(=O)[O-].CC(=O)[O-].[Ca+2] [calcium acetate]
Pi binding (pH 4.5): about 60%
Pi binding (pH 6.8): over 90%
